According to patent publication US10750743B2, “Pyridazinone herbicides” (E.I. DU PONT DE NEMOURS AND COMPANY, priority 2015, dated 2020):

Assays:
Format in all cases: in vivo
[1] = system: ryegrass, It. (Italian ryegrass, Lolium multiflorum); assay: Test A preemergence, directed soil spray, visual injury rating; conditions: Lolium multiflorum, pre-emergence, 240 h, 0 is no effect, 100 is complete control, read-out: Plant response rating (0 to 100 scale), Ryegrass, It.; for pest or weed control at 125 g/ha: 125 g ai/ha; for pest or weed control at 500 g/ha: 500 g ai/ha
Summary of the method: (§1)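 Compounds in a surfactant-containing solvent were applied as a directed soil spray preemergence, or postemergence to plants 2-10 cm tall at the one- to two-leaf stage, in loam-sand blend. After about 10 d in the greenhouse, injury was rated visually against untreated controls on a 0-100 scale (100 = complete control).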

[2] = system: ragweed (common ragweed, Ambrosia elatior); assay: as above; conditions: Ambrosia artemisiifolia, pre-emergence, 240 h, 0 is no effect, 100 is complete control, read-out: Plant response rating (0 to 100 scale), Ragweed; for pest or weed control at 125 g/ha: 125 g ai/ha; for pest or weed control at 500 g/ha: 500 g ai/ha
Summary of the method: as §1

[3] = system: foxtail, giant (giant foxtail, Setaria faberii); assay: as above; conditions: Setaria faberi, pre-emergence, 240 h, 0 is no effect, 100 is complete control, read-out: Plant response rating (0 to 100 scale), Foxtail, Giant; for pest or weed control at 125 g/ha: 125 g ai/ha; for pest or weed control at 500 g/ha: 500 g ai/ha
Summary of the method: as §1

[4] = system: barnyardgrass (Echinochloa crus-galli); assay: as above; conditions: Echinochloa crus-galli, pre-emergence, 240 h, 0 is no effect, 100 is complete control, read-out: Plant response rating (0 to 100 scale), Barnyardgrass; for pest or weed control at 125 g/ha: 125 g ai/ha; for pest or weed control at 500 g/ha: 500 g ai/ha
Summary of the method: as §1

kochia (Kochia scoparia) [5] = assay: as above; conditions: Bassia scoparia, pre-emergence, 240 h, 0 is no effect, 100 is complete control, read-out: Plant response rating (0 to 100 scale), Kochia; for pest or weed control at 125 g/ha: 125 g ai/ha; for pest or weed control at 500 g/ha: 500 g ai/ha
Summary of the method: as §1

[6] = system: pigweed (Amaranthus retroflexus); assay: as above; conditions: Amaranthus retroflexus, pre-emergence, 240 h, 0 is no effect, 100 is complete control, read-out: Plant response rating (0 to 100 scale), Pigweed; for pest or weed control at 125 g/ha: 125 g ai/ha; for pest or weed control at 500 g/ha: 500 g ai/ha
Summary of the method: as §1

[7] = system: ryegrass, It. (Italian ryegrass, Lolium multiflorum); assay: Test A postemergence application, visual injury rating; conditions: Lolium multiflorum, post-emergence, 240 h, 0 to 100 scale, 0 no effect, 100 complete control, read-out: Ryegrass, It. plant response rating; for pest or weed control at 125 g/ha: 125 g ai/ha; for pest or weed control at 500 g/ha: 500 g ai/ha
Summary of the method: as §1

corn (Zea mays) = assay: as above; conditions: Zea mays, post-emergence, 240 h, 0 to 100 scale, 0 no effect, 100 complete control, read-out: Corn plant response rating; for plant injury at 125 g/ha: 125 g ai/ha; for plant injury at 500 g/ha: 500 g ai/ha
Summary of the method: as §1

[8] = system: ragweed (common ragweed, Ambrosia elatior); assay: as above; conditions: Ambrosia artemisiifolia, post-emergence, 240 h, 0 to 100 scale, 0 no effect, 100 complete control, read-out: Ragweed plant response rating; for pest or weed control at 125 g/ha: 125 g ai/ha; for pest or weed control at 500 g/ha: 500 g ai/ha
Summary of the method: as §1

[9] = system: foxtail, giant (giant foxtail, Setaria faberii); assay: as above; conditions: Setaria faberi, post-emergence, 240 h, 0 to 100 scale, 0 no effect, 100 complete control, read-out: Foxtail, Giant plant response rating; for pest or weed control at 125 g/ha: 125 g ai/ha; for pest or weed control at 500 g/ha: 500 g ai/ha
Summary of the method: as §1

[10] = system: wheat (Triticum aestivum); assay: as above; conditions: Triticum aestivum, post-emergence, 240 h, 0 to 100 scale, 0 no effect, 100 complete control, read-out: Wheat plant response rating; for plant injury at 125 g/ha: 125 g ai/ha; for plant injury at 500 g/ha: 500 g ai/ha
Summary of the method: as §1

[11] = system: galium (catchweed bedstraw, Galium aparine); assay: as above; conditions: Galium, post-emergence, 240 h, 0 to 100 scale, 0 no effect, 100 complete control, read-out: Galium plant response rating; for pest or weed control at 125 g/ha: 125 g ai/ha; for pest or weed control at 500 g/ha: 500 g ai/ha
Summary of the method: as §1

[12] = system: barnyardgrass (Echinochloa crus-galli); assay: as above; conditions: Echinochloa crus-galli, post-emergence, 240 h, 0 to 100 scale, 0 no effect, 100 complete control, read-out: Barnyardgrass plant response rating; for pest or weed control at 125 g/ha: 125 g ai/ha; for pest or weed control at 500 g/ha: 500 g ai/ha
Summary of the method: as §1

kochia (Kochia scoparia) [13] = assay: as above; conditions: Bassia scoparia, post-emergence, 240 h, 0 to 100 scale, 0 no effect, 100 complete control, read-out: Kochia plant response rating; for pest or weed control at 125 g/ha: 125 g ai/ha; for pest or weed control at 500 g/ha: 500 g ai/ha
Summary of the method: as §1

[14] = system: pigweed (Amaranthus retroflexus); assay: as above; conditions: Amaranthus retroflexus, post-emergence, 240 h, 0 to 100 scale, 0 no effect, 100 complete control, read-out: Pigweed plant response rating; for pest or weed control at 125 g/ha: 125 g ai/ha; for pest or weed control at 500 g/ha: 500 g ai/ha
Summary of the method: as §1

[15] = system: blackgrass (Alopecurus myosuroides); assay: as above; conditions: Alopecurus myosuroides, post-emergence, 240 h, 0 to 100 scale, 0 no effect, 100 complete control, read-out: Blackgrass plant response rating; for pest or weed control at 125 g/ha: 125 g ai/ha; for pest or weed control at 500 g/ha: 500 g ai/ha
Summary of the method: as §1

[16] = system: ducksalad (Heteranthera limosa); assay: Test B flooded paddy test, visual rating; conditions: Heteranthera limosa, 360 h; Flood, 250 g ai/ha, applied to paddy water, rated after 13 to 15 d; read-out: Ducksalad plant response rating (0 to 100 scale, 0 is no effect, 100 is complete control)
Summary of the method: (§2)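 Plants grown to the 2-leaf stage. At treatment, pots were flooded to 3 cm above the soil, compound was applied directly to the paddy water, and that depth was held throughout. After 13 to 15 d in the greenhouse, response was rated visually against controls on a 0 (no effect) to 100 (complete control) scale.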

[17] = system: sedge, umbrella (small-flower umbrella sedge, Cyperus difformis); assay: Test B flooded paddy test, visual rating; conditions: Cyperus difformis, 360 h; Flood, 250 g ai/ha, applied to paddy water, rated after 13 to 15 d; read-out: Sedge, Umbrella plant response rating (0 to 100 scale, 0 is no effect, 100 is complete control)
Summary of the method: as §2

[18] = system: barnyardgrass (Echinochloa crus-galli); assay: Test B flooded paddy test, visual rating; conditions: Echinochloa crus-galli, 360 h; Flood, 250 g ai/ha, applied to paddy water, rated after 13 to 15 d; read-out: Barnyardgrass plant response rating (0 to 100 scale, 0 is no effect, 100 is complete control)
Summary of the method: as §2

Row | Compound | pest or weed control at 125 g/ha [1] [%] | pest or weed control at 500 g/ha [1] [%] | pest or weed control at 125 g/ha [2] [%] | pest or weed control at 500 g/ha [2] [%] | pest or weed control at 125 g/ha [3] [%] | pest or weed control at 500 g/ha [3] [%] | pest or weed control at 125 g/ha [4] [%] | pest or weed control at 500 g/ha [4] [%] | pest or weed control at 125 g/ha (kochia (Kochia scoparia) [5]) [%] | pest or weed control at 500 g/ha (kochia (Kochia scoparia) [5]) [%] | pest or weed control at 125 g/ha [6] [%] | pest or weed control at 500 g/ha [6] [%] | pest or weed control at 125 g/ha [7] [%] | pest or weed control at 500 g/ha [7] [%] | plant injury at 125 g/ha (corn (Zea mays)) [%] | plant injury at 500 g/ha (corn (Zea mays)) [%] | pest or weed control at 125 g/ha [8] [%] | pest or weed control at 500 g/ha [8] [%] | pest or weed control at 125 g/ha [9] [%] | pest or weed control at 500 g/ha [9] [%] | also measured
1 | Cc1cc2ccc(C)c(-c3c(O)c(C)nn(C)c3=O)c2o1 [Compound 10, 4-(2,6-dimethyl-7-benzofuranyl)-5-hydroxy-2,6-dimethyl-3(2H)-pyridazinone] | 100 | 100 | 90 | 90 | 80 | 100 | 80 | 90 | 100 | 100 | 100 | 100 | 100 | 100 | 10 | 30 | 100 | 100 | 80 | 90 | plant injury at 125 g/ha [10]: 20%; plant injury at 500 g/ha [10]: 60%; pest or weed control at 125 g/ha [11]: 100%; pest or weed control at 500 g/ha [11]: 100%; pest or weed control at 125 g/ha [12]: 50%; pest or weed control at 500 g/ha [12]: 90%; pest or weed control at 125 g/ha (kochia (Kochia scoparia) [13]): 100%; pest or weed control at 500 g/ha (kochia (Kochia scoparia) [13]): 100%; pest or weed control at 125 g/ha [14]: 90%; pest or weed control at 500 g/ha [14]: 100%; pest or weed control at 125 g/ha [15]: 60%; pest or weed control at 500 g/ha [15]: 90%; pest or weed control at 250 g/ha [16]: 0%; pest or weed control at 250 g/ha [17]: 0%; pest or weed control at 250 g/ha [18]: 0%
2 | CC(=O)Oc1c(C)nn(C)c(=O)c1-c1cccc2cc(C)oc12 [Compound 13, 5-(acetyloxy)-2,6-dimethyl-4-(2-methyl-7-benzofuranyl)-3 (2H)-pyridazinone] | 100 | 100 | 40 | 80 | 10 | 60 | 20 | 60 | 0 | 100 | 40 | 100 | 90 | 100 | 0 | 20 | 50 | 70 | 30 | 50 | plant injury at 125 g/ha [10]: 0%; plant injury at 500 g/ha [10]: 20%; pest or weed control at 125 g/ha [11]: 80%; pest or weed control at 500 g/ha [11]: 90%; pest or weed control at 125 g/ha [12]: 0%; pest or weed control at 500 g/ha [12]: 50%; pest or weed control at 125 g/ha (kochia (Kochia scoparia) [13]): 50%; pest or weed control at 500 g/ha (kochia (Kochia scoparia) [13]): 80%; pest or weed control at 125 g/ha [14]: 60%; pest or weed control at 500 g/ha [14]: 70%; pest or weed control at 125 g/ha [15]: 60%; pest or weed control at 500 g/ha [15]: 80%
